Results reported in patent US10370401B2, “Substituted nucleosides, nucleotides and analogs thereof” (Alios BioPharma, Inc., priority 2013, dated 2019).
Read-outs that look alike come from different tables or passages of the source. Each block holds one molecule with its values, some of them ahead of it.

Experiments:
[1] = target: human rhinovirus 16 polymerase (HRV16pol) (Human rhinovirus 16, UniProt Q82122); test: biochemical; settings: HRV16pol, 2.5 h at 30° C., mean of several independent experiments; read-out: IC50
[2] = target: dengue virus NS5 polymerase domain (DENVpol, serotype 2, New Guinea C strain) (Dengue virus type 2, UniProt P14340); test: Dengue virus polymerase inhibition assay; assay type: biochemical; settings: DENVpol serotype 2, 3 hours at 30° C., mean of several independent experiments
Description: The enzyme activity of dengue virus NS5 polymerase domain (DENVpol, serotype 2, New Guinea C strain) was measured as an incorporation of tritiated NMP into acid-insoluble RNA products. DENVpol assay reactions contained 100 nM recombinant enzyme, 50 nM heteropolymeric RNA, about 0.5 μCi tritiated NTP, 0.33 μM of competing cold NTP, 40 mM HEPES (pH 7.5), 3 mM dithiothreitol, and 2 mM MgCl2. Standard reactions were incubated for 3 hours at 30° C., in the presence of increasing concentration of inhibitor. At the end of the reaction, RNA was precipitated with 10% TCA, and acid-insoluble RNA products were filtered on a size exclusion 96-well plate. After washing of the plate, scintillation liquid was added and radiolabeled RNA products were detected according to standard procedures with a Trilux Topcount scintillation counter. The compound concentration at which the enzyme-catalyzed rate was reduced by 50% (IC50) was calculated by fitting the data to a non-linear regression (sigmoidal).

Human rhinovirus 1B = test: Picornavirus assay (CPE, CellTiter-Glo, HeLa-OHIO cells); assay type: cell-based
[3] = tested on: Dengue virus type 2 strain New Guinea C (NG-C) or Dengue virus type 4 strain H241; test: Dengue virus cell-based assay (Huh-7.5 cells, CellTiter-Glo)
Description: The Dengue virus type 2 strain New Guinea C (NG-C) and the Dengue virus type 4 strain H241 were purchased from ATCC (Manassas, Va.; item numbers VR-1584 and VR-1490, respectively). 24 h prior to dosing, Huh-7.5 cells were plated in 96 well plates at a density of 1.5×10^5/mL in DMEM medium supplemented with 10% fetal bovine serum, 1% HEPES buffer, 1% Penicillin/Streptomycin and 1% non-essential amino acids (all Mediatech, Manassas, Va.). At the day of infection, serially diluted compounds were added to cells and incubated for 4 h. After the end of the 4 h pre-incubation period, cells were infected with either Dengue virus type 2 NG-C or Dengue virus type 4H241. The virus inoculum was selected to cause 80-90% cytopathic effect in five to six days. Infected cells were incubated for five (NG-C) to six (H241) days at 37° C., 5% CO2. To develop the assay, 100 μL media was replaced with 100 μl CellTiter-Glo® reagent (Promega, Madison, Wis.), and incubated for 10 mins at RT. Luminescence was measured on a Victor X3 multi-label plate reader. Potential compound cytotoxicity of was determined using uninfected parallel cultures.

NS5B570-Con1 (Delta-21) = NS5B570-Con1 (Delta-21) (Hepatitis C virus genotype 1b, UniProt Q9WMX2); test: biochemical; design: species or system HCV
subgenomic HCV replicon = test: HCV replicon assay (Huh-7, luciferase reporter); assay type: cell-based; settings: Hepatitis C virus
[4] = Rhinovirus A, 96 h, Human rhinovirus 1B, HeLa-OHIO cells, 4 d at 33° C., read-out: EC50
[5] = Huh-7 HCV replicon cells, luciferase, 72 hours, read-out: EC50

human rhinovirus 16 polymerase (HRV16pol), sequence (Q82122 1694-2153 limits assumed): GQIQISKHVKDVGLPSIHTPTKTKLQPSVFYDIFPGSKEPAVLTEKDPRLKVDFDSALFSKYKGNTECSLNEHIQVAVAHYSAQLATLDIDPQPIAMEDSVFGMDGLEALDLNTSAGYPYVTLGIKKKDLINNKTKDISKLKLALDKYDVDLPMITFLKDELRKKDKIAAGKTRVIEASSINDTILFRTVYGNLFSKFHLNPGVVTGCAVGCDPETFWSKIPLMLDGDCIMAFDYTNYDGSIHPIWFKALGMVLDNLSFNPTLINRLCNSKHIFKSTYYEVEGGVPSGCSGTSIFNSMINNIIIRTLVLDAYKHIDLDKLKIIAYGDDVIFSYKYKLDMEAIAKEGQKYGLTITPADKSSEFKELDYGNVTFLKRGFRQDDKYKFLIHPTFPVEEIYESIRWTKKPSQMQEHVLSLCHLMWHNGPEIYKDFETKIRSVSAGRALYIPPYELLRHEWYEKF

IC50 [1]: < 1 µM | IC50 [2]: < 1 µM
Compound: C#C[C@]1(O)[C@H](n2cnc3c(=O)[nH]c(N)nc32)O[C@](F)(COP(=O)(O)OP(=O)(O)OP(=O)(O)O)[C@H]1O [compound 115]

Compound: CCOc1nc(N)nc2c1ncn2[C@@H]1O[C@](F)(CO[P@](=O)(N[C@@H](C)C(=O)OC2CCCCC2)Oc2ccccc2)[C@@H](O)[C@@]1(C)F [Compound 25]
EC50 (Human rhinovirus 1B; Rhinovirus A, 96 h): < 1 µM | IC50 ([3]; Dengue virus, Huh7.5): < 1 µM

Compound: C[C@@]1(F)[C@H](O)[C@@](CF)(COP(=O)(O)OP(=O)(O)OP(=O)(O)O)O[C@H]1n1cnc2c(=O)[nH]c(N)nc21 [compound 162]
IC50 [1]: < 1 µM | IC50 [2]: < 10 µM | IC50 (NS5B570-Con1 (Delta-21)): 1 to 10 µM

Compound: C[C@]1(O)[C@H](n2cnc3c(=O)[nH]c(N)nc32)O[C@](F)(COP(=O)(O)OP(=O)(O)OP(=O)(O)O)[C@H]1F [compound 101]
IC50 [1]: < 1 µM | IC50 [2]: < 10 µM | IC50 (NS5B570-Con1 (Delta-21)): < 1 µM

Compound: CC(C)OC(=O)OCOP(=O)(OCOC(=O)OC(C)C)OC[C@@]1(F)O[C@@H](n2cnc3c(=O)[nH]c(N)nc32)[C@](C)(O)[C@@H]1O [Compound 46]
EC50 (Human rhinovirus 1B; [4]): < 1 µM | IC50 ([3]; Dengue virus, Huh7.5): < 100 µM

IC50 [1]: < 1 µM | IC50 [2]: < 1 µM
Compound: C[C@]1(F)[C@H](n2ccc(N)nc2=O)O[C@](F)(COP(=O)(O)OP(=O)(O)OP(=O)(O)O)[C@H]1O [compound 29]

Compound: C#C[C@]1(O)[C@H](n2cnc3c(OCC)nc(N)nc32)O[C@](F)(CO[P@](=O)(N[C@@H](C)C(=O)OC2CCCCC2)Oc2ccccc2)[C@H]1O [Compound 27]
EC50 (Human rhinovirus 1B; Human rhinovirus 1B, HeLa-OHIO cells, 4 d at 33° C., read-out: EC50): < 1 µM | IC50 ([3]; Huh-7.5 cells, antiviral activity, dengue type (2 NG-C or 4 H241) not given, read-out: IC50): < 10 µM

IC50 [2]: < 10 µM
Compound: C[C@]1(F)[C@H](n2ccc(=O)[nH]c2=O)O[C@](F)(COP(=O)(O)OP(=O)(O)OP(=O)(O)O)[C@H]1O [compound 147]

Compound: CCOc1nc(N)nc2c1ncn2[C@@H]1O[C@](F)(COP(=O)(N[C@@H](C)C(=O)OC2CCCCC2)Oc2ccccc2)[C@@H](O)[C@@]1(C)O (some centres unmarked) [Compound 10]
EC50 (Human rhinovirus 1B; Rhinovirus A, 96 h): < 1 µM | IC50 ([3]; Dengue virus, Huh7.5): < 1 µM

Compound: C[C@]1(F)[C@H](n2cnc3c(=O)[nH]c(N)nc32)O[C@](F)(COP(=O)(O)OP(=O)(O)OP(=O)(O)O)[C@H]1O [compound 19]
IC50 [1]: < 1 µM | IC50 [2]: < 10 µM | IC50 (NS5B570-Con1 (Delta-21)): < 1 µM

Compound: CCOC(=O)OCOP(=O)(OCOC(=O)OCC)OC[C@@]1(CF)O[C@@H](n2ccc(=O)n(COC(=O)C(N)C(C)C)c2=O)[C@](C)(O)[C@@H]1O (some centres unmarked) [Compound 71]
EC50 (subgenomic HCV replicon; Huh-7, 72 h): 1 to 10 µM | EC50 (Human rhinovirus 1B; Rhinovirus A, 96 h): 1 to 10 µM

Compound: Nc1ccn([C@@H]2O[C@H](CO)[C@@H](O)[C@]2(O)CF)c(=O)n1 [Compound 295]
EC50 (subgenomic HCV replicon; [5]): 1 to 10 µM | EC50 (Human rhinovirus 1B; [4]): 10 to 100 µM

Compound: CCOc1nc(N)nc2c1ncn2[C@@H]1O[C@]2(F)CO[P@](=O)(OC(C)C)O[C@H]2[C@@]1(C)O [Compound 88]
EC50 (Human rhinovirus 1B; [4]): 10 to 100 µM | IC50 ([3]; Dengue virus, Huh7.5): < 10 µM

IC50 [1]: < 1 µM | IC50 [2]: < 10 µM
Compound: C[C@]1(O)[C@H](n2ccc(N)nc2=O)O[C@](F)(COP(=O)(O)OP(=O)(O)OP(=O)(O)O)[C@H]1O [compound 124]

Compound: C=C[C@]1(CO)O[C@@H](n2ccc(N)nc2=O)[C@H](O)[C@@H]1O [compound 303]
EC50 (subgenomic HCV replicon; [5]): 1 to 10 µM | EC50 (Human rhinovirus 1B; [4]): 10 to 100 µM

IC50 [1]: < 1 µM | IC50 [2]: < 10 µM
Compound: C#C[C@]1(F)[C@H](n2cnc3c(=O)[nH]c(N)nc32)O[C@](F)(COP(=O)(O)OP(=O)(O)OP(=O)(O)O)[C@H]1O [compound 123]

Compound: C#C[C@]1(O)[C@H](n2ccc(=O)[nH]c2=O)O[C@](F)(COP(=O)(OCOC(=O)OC(C)C)OCOC(=O)OC(C)C)[C@H]1O [Compound 53]
EC50 (Human rhinovirus 1B; [4]): < 1 µM | IC50 ([3]; Dengue virus, Huh7.5): < 10 µM

Compound: C[C@@]1(O)[C@H](O)[C@@](CF)(COP(=O)(O)OP(=O)(O)OP(=O)(O)O)O[C@H]1n1ccc(N)nc1=O [compound 91]
IC50 [1]: < 10 µM | IC50 [2]: < 100 µM | IC50 (NS5B570-Con1 (Delta-21)): < 1 µM

IC50 [1]: < 10 µM | IC50 [2]: < 1 µM
Compound: C[C@]1(O)[C@H](n2ccc(=O)[nH]c2=O)O[C@](F)(COP(=O)(O)OP(=O)(O)OP(=O)(O)O)[C@H]1O [Compound 110]
